Converted amounts (≈) assume the structure as drawn.
Key:
Hep3B = experiment: Cytotoxicity of DOX, free or delivered in protocells or liposomes, in Hep3B; format: cell-based; settings: as DOX
Text: For toxicology studies there are two major issues which must be addressed: silica loading in the tissues, derived from the mesoporous silica core of the protocell, and non-targeted or “off target” delivery of the therapeutic cargos to normal tissues. […] Nevertheless, we will systematically evaluate all major organs and tissues in treated mice for silica deposition and cellular damage after treatment with loaded and unloaded protocells. […] As a benchmark, we compared oxidative stress and cell viability of neutral, positively and negatively-charged targeted protocells with corresponding liposomes and other control particles at 10^9 particles/mL corresponding to ˜1-2 μg/mL (FIG. 24). […] In preliminary studies (FIG. 25), we also compared the IgG response of C57Bl/6 mice immunized twice with 10 μg doses of targeted and SP94-targeted protocells to that of virus-like particles (VLPs) conjugated to the same concentration of targeting peptide (MS2 SP94). […] When considering therapeutically administered doses, for the hepatocellular carcinoma cell line Hep3B, the LC50 and LC90 values of free DOX are 150 and 500 ng/mL, respectively. […] As discussed above, Si loading will be assessed by ICP-MS. […]

[1] = target: human CRLF2 expressed on the cell surface (BaF3-CRLF2, REH-CRLF2, MHH CALL 4, MUTZ5 cells) (human) (UniProt Q9HC73); experiment: protocell binding to BaF3-CRLF2, MUTZ5 and MHHCALL4 cells, against untargeted protocells, the parental BAF3 line or CRLF2(-) NALM6 cells (FIG. 19, 20)
CRLF2 = target: T1, CRLF2 (Homo sapiens, UniProt Q9HC73); experiment: Flow cytometry binding of M13 phage displaying peptide to BaF3-CRLF2 cells; settings: for binding to CRLF2 (peptides pulled from enriched phage population): phage display selection on BaF3 cells expressing CRLF2
T1 construct: expressed in transfected cells
T1 sequence (Q9HC73 23-371): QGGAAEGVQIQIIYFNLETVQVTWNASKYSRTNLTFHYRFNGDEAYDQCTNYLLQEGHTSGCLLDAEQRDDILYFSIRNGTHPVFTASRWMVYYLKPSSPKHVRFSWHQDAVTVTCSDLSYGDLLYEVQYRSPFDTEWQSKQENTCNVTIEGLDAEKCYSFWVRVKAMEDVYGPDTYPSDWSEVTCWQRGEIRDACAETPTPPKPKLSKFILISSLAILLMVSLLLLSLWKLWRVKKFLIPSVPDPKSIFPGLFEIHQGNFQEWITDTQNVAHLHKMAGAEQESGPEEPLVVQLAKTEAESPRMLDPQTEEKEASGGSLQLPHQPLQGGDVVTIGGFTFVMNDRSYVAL
Method: (§1) Flow cytometry is used to evaluate binding of individual phage clones within consensus sequences. In this case, a saturable binding curve can be constructed, allowing for the determination of the dissociation constant (Kd) of phage displaying potentially specific peptides that bind cells with high levels of CRLF2 expression but not parental cell lines with minimal expression.
The selections were carried out on BaF3 cells that had been induced to create the cell receptor CRLF2 and express it on their surface. Negative selections were carried out on the parental cell line (no CRLF2) in order to assure that the ligand identified was in fact binding to the desired target and not to other features on the surface of the cells.
(§2) Affinity selections on cellular targets are complicated by the heterogeneity of surface protein expression on mammalian cells, which frequently results in a large number of peptides that bind unsuitable targets. A major goal of the work we propose is to create an efficient selection/counter-selection scheme. To illustrate our strategy, the gene encoding human CRLF2 was introduced into BaF3 cells (a murine IL3-dependent pro-B cell line) and the protein's abundant surface expression was confirmed by FACS (as shown in Project 2). The resulting BaF3-CRLF2 cells, together with the BaF3 parental line (which specifically lacks CRLF2), served as a matched selection/counter-selection pair and provided a convenient means of discarding affinity selectants that bind the many non-CRLF2 receptors inevitably encountered on the BaF3 surface.
(§3) In this case, a saturable binding curve can be constructed, allowing for the determination of the disassociation constant (Kd) of phage displaying potential specific peptides that bind cells with high levels of CRLF2 expression but not parental cell lines with minimal expression. Data shown for the MTAAPVH phage clone on BaF3/CRLF2 (A) and parental BaF3 cells. (B) Binding curves were constructed by titrating the amount of phage with constant cell concentrations in order to quantitatively describe binding. Non-specific binding was determined by incubating wild-type phage with the same cell lines.
CRLF2 may be targeted using its natural ligand TSLP or with peptides that are specifically directed towards CRLF2; both approaches are being developed. […] Peptides selected by affinity for Ba-F3-CRLF2 cells were counter-selected against parental Ba-F3 cells to eliminate any phage binding receptors common to both cell types. We find that a matched selection/counter-selection pair greatly increases the specificity of the affinity selection process. It is important to note that in the VLP screening method, each VLP encapsidates its own mRNA. This means that the nucleotide sequences encoding any particular VLP and its guest peptide or protein are contained within the particle itself and can be recovered by reverse transcription and polymerase chain reaction.

BaF3 parental cells = experiment: Flow cytometry binding of M13 phage displaying peptide to BaF3 parental cells; set-up: species or system murine
Text: as §1, §2, §3
CRLF2 may be targeted using its natural ligand TSLP or with peptides that are specifically directed towards CRLF2; both approaches are being developed. […]

[2] = tested on: MHH CALL 4, Mutz-5 and BaF3/CRLF-2 cells; experiment: Internalization of CRLF-2-targeted protocells by target cells; format: cell-based, human; settings: peptide on protocell surface
Method: The upper-left portion of FIG. 7 depicts the internalization efficacy of CRLF-2-targeted protocells in the absence of the R8 peptide. The upper right portion of FIG. 7 presents images of CRLF-2-positive (MHH CALL 4) and CRLF-2-negative (MOLT 4) cells exposed to targeted protocells for 37° C. for two hours. N.D.=not detectable; bilayer composition=DOIDA in DSPC with 5 wt % DSPE; approximate peptide density=10 targeting peptides/protocell and ˜500 H5WYG peptides/protocell. Targeted protocells can become internalized within target cells (MHH CALL 4, Mutz-5 and BaF3/CRLF-2) over time. However, overall internalization efficiency is only ˜20%, which could lead to non-specific cytotoxicity. The lower-left portion of FIG. 7 depicts the internalization efficacy of CRLF-2-targeted protocells in the presence of the R8 peptide. The lower right portion of FIG. 7 presents images of CRLF-2-positive (MHH CALL 4) and CRLF-2-negative (MOLT 4) cells exposed to targeted protocells for 37° C. for two hours. N.D.=not detectable; bilayer composition=DOIDA in DSPC with 5 wt % DSPE; approximate peptide density=10 targeting peptides/protocell and −500 H5WYG peptides/protocell.
The upper-left portion of FIG. 8 depicts internalization kinetics for CRLF-2-targeted protocells in the absence and presence of the R8 peptide. […]

[3] = target: T2, human CRLF2 expressed on the cell surface (BaF3-CRLF2, REH-CRLF2, MHH CALL 4, MUTZ5 cells) (human, UniProt Q9HC73 23-371); experiment: flow cytometry, Alexa-fluor-647 labeled particles incubated 1 h with BaF3/CRLF-2 cells
T2 construct: whole, on cells; Parental BaF3 / REH cells lack CRLF2 and served as negative controls; also called TSLP receptor; TSLPR
T2 sequence (looked up): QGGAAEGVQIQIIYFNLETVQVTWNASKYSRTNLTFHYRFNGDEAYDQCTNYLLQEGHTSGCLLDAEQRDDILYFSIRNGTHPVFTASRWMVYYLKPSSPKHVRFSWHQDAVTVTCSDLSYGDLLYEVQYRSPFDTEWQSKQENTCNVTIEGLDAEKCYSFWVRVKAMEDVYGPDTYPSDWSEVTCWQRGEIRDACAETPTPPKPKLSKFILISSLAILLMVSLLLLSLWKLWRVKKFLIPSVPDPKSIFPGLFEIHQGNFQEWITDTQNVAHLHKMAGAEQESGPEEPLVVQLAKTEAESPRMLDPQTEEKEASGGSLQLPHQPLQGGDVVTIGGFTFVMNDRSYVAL

[4] = target: T3, human CRLF2 expressed on the cell surface (BaF3-CRLF2, REH-CRLF2, MHH CALL 4, MUTZ5 cells) (human), Q9HC73; experiment: binding of M13 phage to BaF3-CRLF2 cells (FIG. 18)
T3 chain: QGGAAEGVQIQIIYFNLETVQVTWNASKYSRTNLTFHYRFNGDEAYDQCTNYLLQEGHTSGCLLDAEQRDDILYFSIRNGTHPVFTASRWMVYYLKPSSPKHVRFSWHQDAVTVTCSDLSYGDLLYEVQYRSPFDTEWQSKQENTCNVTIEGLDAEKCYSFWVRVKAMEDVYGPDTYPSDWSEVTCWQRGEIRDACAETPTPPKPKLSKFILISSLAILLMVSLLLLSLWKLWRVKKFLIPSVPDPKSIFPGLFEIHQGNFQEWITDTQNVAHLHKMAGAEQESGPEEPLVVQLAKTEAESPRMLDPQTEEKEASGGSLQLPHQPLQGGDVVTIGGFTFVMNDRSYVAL

[5] = target: T3, human CRLF2 expressed on the cell …; experiment: flow cytometry, M13 phage on BaF3-CRLF2 cells (FIG. 3)

Work on `COc1cccc2c1C(=O)c1c(O)c3c(c(O)c1C2=O)C[C@@](O)(C(=O)CO)C[C@@H]3O[C@H]1C[C@H](N)[C@H](O)[C@H](C)O1` [free DOX, doxorubicin] yielded an LC50 (Hep3B) of 0.15 µg/mL (≈ 0.276 µM) and an LC90 (Hep3B) of 0.5 µg/mL (≈ 0.92 µM).

With “CRLF2-targeted protocells conjugated with the CRLF2-targeting peptide TDAHASV” the fold higher affinity [1] was 1000 fold.

With FSYLPSH the “binding to CRLF2 (peptides pulled from enriched phage population)” value (“binding to CRLF2” for short) (CRLF2) was “exhibited binding to CRLF2”.

In the case of MTAAPVH, the “Specific binding of phage clone to CRLF2 positive cells” value (CRLF2; BaF3/CRLF2, non-specific binding from wild-type phage) is reported as “significant”, the “binding to CRLF2” value (CRLF2) is reported as “best binder” and the “Specific binding of phage clone to the parental cells” value (BaF3 parental cells; parental BaF3) is reported as “extremely minimal”. The “promotion of internalization of protocells by CRLF2-positive cells” value [2] was “does not promote rapid internalization”.

In the case of “RRRRRRRR [R8, 8 mer polyarginine that promotes internalization, reference compound]”, the “promotion of internalization of protocells by CRLF2-positive cells” value [2] is reported as “promoted this selective internalization in a density-dependent manner”.

With TDAHASV [peptide ligand to CRLF2] the Kd (CRLF2; peptide displayed on M13 phage, BaF3-CRLF2 cells) was 27.9 nM, the “binding to CRLF2” value (CRLF2) was “exhibited binding to CRLF2” and the “binding to the BaF3 parent” value (BaF3 parental cells; peptide displayed on M13 phage) was “not showing significant binding”. For the same molecule, the Kd (BaF3 parental cells; peptide displayed on M13 phage, read-out: Kd for the BaF3 parental line) was under 3000 nM.

B1: VLPs not displaying any additional peptides (other)
chain: ASNFTQFVLVDNGGTGDVTVAPSNFANGVAEWISSNSRSQAYKVTCSVRQSSAQNRKYTIKVEVPKVATQTVGGVELPVAAWRSYLNMELTIPIFATNSDCELIVKAMQGLLKDGNPIPSAIAANSGIY
notes: Control particle; also called nontargeted VLPs; particles not displaying any additional peptides
B1: no binding [3].

B2: M13 filamentous phage displaying the CRLF2-binding peptide TDAHASV (peptide)
chain: TDAHASV
modifications: not checked
B2 showed a Kd [4] of 27.9 nM and a Kd [5] of 3 nM.

From patent US20150010475A1, “CRLF-2 BINDING PEPTIDES, PROTOCELLS AND VIRAL-LIKE PARTICLES USEFUL IN THE TREATMENT OF CANCER, INCLUDING ACUTE LYMPHOBLASTIC LEUKEMIA (ALL)” (STC. UNM, priority 2011, published 2015)
